Measured values: paper PMC4393083, “Antiviral Activity and Possible Mechanism of Action of Constituents Identified in Paeonia lactiflora Root toward Human Rhinoviruses” (PLoS ONE, 2015)
Where two headings read alike, the source gives them in different places.

Legend:
HRV = settings: read-out: IC50 (anti-HRV); cited from earlier work
HRV-4 [1] = assay: Cytopathic effect inhibition assay (MTT), HRV-4 in HeLa cells; type: cell-based, human rhinovirus; settings: Human rhinovirus sp., HRV4, HeLa, read-out: IC50 (95% CL) HRV-4
Protocol: Extraction procedures of air-dried root of P. lactiflora were performed as described previously by Ngan et al.. For isolation of active principles, viral CPE inhibition assay toward HRV-4 in HeLa cell was used. […]. Column fractions were monitored by TLC on silica gel plates developed with chloroform and methanol (7:3 by volume) mobile phase. Fractions with similar R f values on the TLC plates were pooled. Active fractions 4 to 5 (EI, 2.44 g) and 7 (EII, 0.569 g) were obtained. The active fraction EI was rechromatographed on a silica gel column by elution with chloroform and methanol (70:30 by volume) to give nine fractions (each about 450 mL). A preparative HPLC was used for separation of constituents from the active fractions 3 to 5 (0.176 g). The column was a 4.6 mm i.d. × 150 mm Eclipse XDB-C18 (Agilent, Santa Clara, CA) using a mobile phase of methanol and water (3:7 by volume) at a flow rate of 0.5 mL/min. Chromatographic separations were monitored using a UV detector at 260 nm. […]. The three antiviral principles were characterized as paeonol (PA) (1), gallic acid (GA) (2), and 1,2,3,4,6-penta-O-galloyl-β-D-glucopyranose (PGG) (3) (Fig 1) by spectroscopic analyses, including MS and NMR. PA (1): compound 1 was isolated as an antibacterial principle from P. lactiflora root in our previous work, and the spectral data of compound 1 was largely identical to the published data. GA (2) was identified on the basis of the following evidence: white powder. UV (MeOH): λmax nm = 260. FT-IR: v max cm^–1 = 3491–3063 (OH stretch), 1608 (aromatic C = C). […] The interpretations of proton and carbon signals of compound 2 were largely consistent with those of Sakar et al.. PGG (3): compound 3 was isolated as an antibacterial principle from P. lactiflora root in our previous work, and the spectral data of compound 3 was largely identical to the published data.
(§1) Monolayers of HeLa and MRC5 cells were seeded onto a 96-well culture plate as stated previously. Subsequently, 90 μL media containing several different concentrations (1–1000 μg/mL) of each test material in DMSO was put into the wells, and then 10 μL of 10×TCID50 of the virus stock was added to produce an appropriate CPE within 2 days after infection. Ribavirin served as a reference control and was similarly prepared. Negative controls consisted of the DMSO solution. Viral inhibition rate (VIR) (%) was calculated according to the formula [21], VIR = (A tV—A cV)/(A cd—A cV) × 100, where A tV is the optical density measured with a given concentration of the test compound in HRV infected cells; A cV is the optical density measured for the control untreated HRV infected cells; A cd is the optical density measured for the control untreated HRV uninfected cells.
(§2) The CC50 and IC50 values were determined using GraphPad Prism 5 software program (GraphPad Software, La Jolla, CA). […] The selectivity index (SI) was determined as the ratio of CC50 to IC50 [23]. All data represent the mean ± SD of duplicate or triplicate samples of three independent experiments. Statistical analyses were carried out using SAS 9.13 program (SAS Institute, Cary, NC). Data from two groups were analyzed by a Student’s t-test, and multiple groups were analyzed by a one-way analysis of variance and Bonferroni multiple comparison post-test.

[2] = system: two HRVs (HRV-2 and HRV-4); assay: Cytopathic effect inhibition assay, summary over both serotypes; type: cell-based, human rhinovirus; settings: Rhinovirus A; range over HRV-2 and HRV-4, HeLa and MRC5 cells; read-out: IC50 toward two HRVs (range)
Protocol: as §1, §2

[3] = Cytotoxicity MTT assay in HeLa cells; type: cell-based; settings: human, tetrazolium assay, read-out: CC50 (95% CL)
Protocol: (§3) The cytotoxicity of the test materials to two human cell lines was evaluated using an MTT assay described previously by Morgan. In brief, a 10× stock solution of MTT was prepared by adding 5 mg/mL MTT in phosphate-buffered saline (PBS) (pH 7.4). The stock solution was sterile-filtered and stored at −20°C. HeLa and MRC5 cells were seeded onto 96-well culture plates at a density of 3 × 10^4 cells per well for 1 day. The culture medium was removed and the plates with monolayer cells were replaced with media containing several different concentrations (1–1000 μg/mL) of the test materials in dimethylsulfoxide (DMSO). After incubation at 37°C and 5% CO2 for 2 days, the culture plates were then washed once with 200 μL PBS. A volume of 100 μL medium containing 0.05% MTT were added to each well and then incubated for 4 h at the same condition. After then, MTT solution was removed and 150 μL DMSO was added to each well. Finally, the plate was shaken for 15 min to dissolve the purple formazan crystals that had formed. Absorbance was read at 560 nm by using a VersaMax microplate reader (Molecular Devices, Sunnyvale, CA) with a reference absorbance at 670 nm.
as §2, with “Statistical analyses were carried out using SAS 9.13 program (SAS Institute, Cary, NC).” left out

HRV-4 [4] = assay: Cytopathic effect inhibition assay (MTT), HRV-4 in MRC5 cells; type: cell-based, human rhinovirus; settings: HRV-4 in MRC5 cells
Protocol: as §1, §2

HRV-2 [5] = assay: Cytopathic effect inhibition assay (MTT), HRV-2 in HeLa cells; type: cell-based, human rhinovirus; settings: read-out: IC50 (95% CL) HRV-2
Protocol: as §1, §2

[6] = Cytotoxicity MTT assay in MRC5 cells; type: cell-based, human; settings: human, tetrazolium assay, read-out: CC50 (95% CL)
Protocol: as §3
as §2, with “Statistical analyses were carried out using SAS 9.13 program (SAS Institute, Cary, NC).” left out

MRC5 cells = assay: Cytotoxicity MTT assay in MRC5 cells; type: cell-based, human
Protocol: as §3
as §2, with “Statistical analyses were carried out using SAS 9.13 program (SAS Institute, Cary, NC).” left out

HRV-2 [7] = assay: Cytopathic effect inhibition assay (MTT), HRV-2 in MRC5 cells; type: cell-based, human rhinovirus; settings: HRV-2 in MRC5 cells
Protocol: as §1, §2

Molecule | IC50 (HRV) | further results
C=C1CCC2CC(C(=C)C)C2(C)CCC(C(=C)C(=O)O)CC1CC=C(C)C (stereo not drawn) [raoulic acid] | 0.51 µM | –
C[C@@H]1CC[C@]2(C(=O)O)CC[C@]3(C)C(=CC[C@@H]4[C@@]5(C)C[C@@H](O)[C@H](OC(=O)/C=C/c6ccc(O)c(O)c6)C(C)(C)[C@@H]5CC[C@]43C)[C@@H]2[C@]1(C)O (relative stereo) [3-O-trans-caffeoyltormentic acid] | 30.7 µM | –
COc1cc2ccc(=O)oc2c(OC)c1OC [6,7,8-trimethoxycoumarin] | 12 µM | –
O=C(O)c1cc(O)c(O)c(O)c1 [GA, gallic acid] | ~295 µM | IC50 (HRV-4 [1]): 448 µM; IC50 [2]: 427 to 448 µM; CC50 at 2 days [3]: 1500 µM; IC50 (95% CL) HRV-4 (HRV-4 [4]): ineffective; IC50 (HRV-2 [5]; Rhinovirus A, HRV2, HeLa): 427 µM; IC50 (HRV-2 [5]): 427 µM; CC50 at 2 days [6]: 218 µM; concentration toxic to cells (MRC5 cells): ≥ 290 µM; IC50 (95% CL) HRV-2 (HRV-2 [7]): ineffective
C/C(=C\COc1ccc2ccc(=O)oc2c1)CC[C@@H]1C(C)(C)[C@H]2CC[C@]1(C)O2 [farnesiferol C] | ~2.61 µM | –
COc1cc(O)c2c(=O)c(OC)c(-c3ccc(O)c(OC)c3)oc2c1 [4ʹ,5-dihydroxy-3ʹ,3,7-trimethoxyflavone] | 0.29 µM | –
COc1cc2c(cc1OC)-c1c(OC)c(OC)cc3c1[C@H](C2)N(C)CC3 [glaucine] | 22 µM | –
C=C1CC[C@@H](O)C(C)(C)C1CC/C(C)=C/COc1ccc2ccc(=O)oc2c1 (stereo partly drawn) [farnesiferol B] | ~2.61 µM | –
COc1cc2c(c(O)c1OC)c(=O)c1ccccc1n2C [arborinine] | 3.19 µM | –
O=c1c(-c2ccc(O)c(O)c2)coc2cc(O[C@@H]3O[C@H](CO)[C@@H](O)[C@H](O)[C@H]3O)cc(O)c12 [orobol 7-O-D-glucoside] | 1.29 to 19.6 µM | –
COc1cc2cc(Oc3ccc4ccc(=O)oc4c3)c(=O)oc2cc1OC [daphnoretin methyl ether] | 97.1 µM | –
(S)-ribalinine | 83 µM | –
